Measured values reported in patent US20080306248A1, “Conjugate of Biomacromolecule with Bioreductive and Preparative Method Thereof” (priority 2005, published 2008).
Values after ≈ are worked out from the molar mass of the structure shown.

Tests used:
[1] = tested on: L-02; experiment: MTT cytotoxicity assay, L-02 cells; assay type: cell-based; conditions: concentration of MMC or conjugate up to 8 ugMMC/ml
Description: (§1) Conjugate cytotoxicity was assessed using an MTT assay. Cells (SMMC-7721, L-02, etc.) were seeded at a density of 1×10^4 cells/well […] to the assay. At the start of the experiment the culture medium was removed and the conjugate (0-2 mg/lnl in complete medium) was added (100 ul). After 4 h, MTT (20 ul; 5 mg/ml in PBS) was added and the plates re-incubated for a further 5 h. the formazan crystals were dissolved in DMSO and the absorbance read at 550 nm using a microtitre plate reader. The results were expressed as viability(%) relative to a control containing no conjugate.

[2] = tested on: SMMC-7721; experiment: MTT cytotoxicity assay, SMMC-7721 cells; assay type: cell-based
Description: as §1

[3] = tested on: Caco-2 cell monolayers
Description: The transcellular transport of conjugate was evaluated using Caco-2 cell monolayers. Caco-2 cells were maintained in plastic culture flasks. These stock cells were subcultivated before reaching confluence. The medium consisted of Dulbecco's Modified Eagle's Medium supplemented with 10% fetal bovine serum, 1% nonessential amino acid, 2 mM L-glutamine and 100 IU/mL penicillin-10 ug/mL streptomycin. The monolayer cultures were grown in an atmosphere of 5% CO2-95% O2 at 37° C. The cells were given fresh growth medium every 2 days. When the Caco-2 cells had reached confluence, they were harvested with 0.25 mM trypsin and 0.2% EDTA (0.5-1 min at 37° C.), resuspended, and seeded into a new flask, Caco-2 cells were used between passages 45 and 60. For the transport study, Caco-2 cells were seeded at a cell density of 8×10^4 cells/cm^2 on 6-well (3-mm pores, 4.71-cm^2 growth area) Transwell™. The cell monolayers were fed a fresh growth medium every 2 days and were used at 16 to 21 days for the transport experiments. TEER was used to monitor the integrity of the monolayers. Monolayers with TEER above 350/cm^2 (after subtracting the back group value of the transwell) were used in the study.

Compound	viability of L-02 [1]	IC50 ([2]; Homo sapiens, SMMC-7721, viability relative to control containing no conjugate)	IC50 to SMMC-7721 ([2]; viability relative to control containing no conjugate)	transcellular transport by caco-2 cells (transport fraction) [3]
CO[C@@]12[C@H](COC(N)=O)C3=C(C(=O)C(C)=C(N)C3=O)N1C[C@@H]1N[C@@H]12 [MMC, mitomycinC, reference compound]	unchanged	1.6 µg/mL (≈ 4.79 µM)		
Fe-transferrin-MMC	unchanged		0.5 ug MMC/ml	20 % of total drug
